“And” between values parts separate entries of the source, which are not always exact repeats. Equal entries are not always repeated. Where two headings read alike, the source gives them in different places.
Experiments:
HCV RNA polymerase NS5B [1] = molecular target: T1, HCV RNA polymerase NS5B (Hepatitis C virus genotype 1b, UniProt P26663); test: Ligand-observed MS primary screen of the 384-fragment mixture (ultrafiltration LC/MS); assay type: binding; conditions: for S/N in the 1st screen: 384 fragments each 25 μM, NS5B 50 μM, two experimental replicates separated by a slash, S/N > 10 indicates positive hit
T1 construct: NS5B with a C-terminal 10-His tag was expressed in E. coli; 10-His (C); made in house; host or cells: E. coli
T1 sequence (P26663 2420-3010): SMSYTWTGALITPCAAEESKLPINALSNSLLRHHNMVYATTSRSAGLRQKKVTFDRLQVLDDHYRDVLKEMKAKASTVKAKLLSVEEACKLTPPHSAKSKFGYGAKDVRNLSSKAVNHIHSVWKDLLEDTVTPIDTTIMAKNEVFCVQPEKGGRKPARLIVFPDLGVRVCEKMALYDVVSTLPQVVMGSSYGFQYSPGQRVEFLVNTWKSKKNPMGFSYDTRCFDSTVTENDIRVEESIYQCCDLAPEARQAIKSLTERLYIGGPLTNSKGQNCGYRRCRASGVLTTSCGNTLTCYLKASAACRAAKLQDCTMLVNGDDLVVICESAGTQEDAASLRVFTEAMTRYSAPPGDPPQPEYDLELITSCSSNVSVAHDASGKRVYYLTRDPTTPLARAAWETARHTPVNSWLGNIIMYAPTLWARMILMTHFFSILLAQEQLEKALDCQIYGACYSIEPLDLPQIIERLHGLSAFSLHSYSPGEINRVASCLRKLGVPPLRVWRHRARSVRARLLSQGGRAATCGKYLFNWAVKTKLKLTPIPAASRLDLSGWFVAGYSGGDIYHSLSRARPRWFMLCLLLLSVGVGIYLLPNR
Procedure: A two-stage fragment screening strategy based on the ligand-observed MS analysis was devised that involved a primary screen of 384 fragment as a whole followed by a secondary independent screen of fragment cocktails of less complexity. In the primary screen, a mixture of all 384 fragments was incubated with NS5B protein before the fragment-bound complexes were separated from excessive free fragments using ultrafiltration. […] Fragments dissociated from the target using 90% methanol in deionized water were subjected to LC-MS analysis and those showing MS intensity substantially higher than the negative control (protein-free incubation) were considered positive hits (Figure 1A). Although in our previous assay development we justified an S/N ratio of 2 to be the threshold for positive binding, here we raised the S/N threshold to 10 so as to retain the upmost strong binders given that low-affinity fragments are more inclined to nonspecific adsorption. Impressively, the high selectivity of high-resolution MS (HRMS) analysis enabled rapid screening of the 384-fragment mixture within 20-min analytical time, generating 20 preliminary hits with S/N above 10 (Figure 1B, full data sets in Table S1). It is noted that 20 compounds (5%) in this library are not amenable to our analysis, probably due to the limited sensitivity of the mass spectrometer used in this study or the intrinsically low ionization efficiency of these compounds. Nevertheless, these undetectable fragments were still included in the screening cocktail to maximize the complexity of multiple ligand interactions during incubation. To the best of our knowledge, such a high capacity in mixture screening has never been shown before for fragment libraries, and we anticipate the throughput can be easily boosted to screening >1000 fragments within half an hour using a state-of-the-art mass spectrometer.
(§1) In the primary screening, a mixture of 384 fragments (each at a final concentration of 25 μM) and NS5B at 50 μM was prepared in the binding buffer of 20 mM MES (pH 6.5), 300 mM NaCl and 10% glycerol, and incubated for 40 min at 25°C. All fragments of the library were either purchased from Sigma or synthesized in our laboratory, and their structural diversity was summarized in Figure S4. The mixture was then filtered through an ultrafiltration membrane (50 KD MW cut-off) by centrifugation at 13000 g for 10 min at […]. The protein complexes bound with different fragments were washed twice with 10 mM ammonium acetate (pH 6.5) followed by centrifugation to remove the unbound fragments. The resulting solution of the complexes was transferred to a new centrifugal tube, and the ligands were dissociated from NS5B with 90% methanol in deionized water. The released ligands were then separated from the denatured protein by centrifugation at 13000 g for 10 min at 20°C. The supernatant containing the ligands was evaporated by a speed vacuum, reconstituted in 80% methanol, and analyzed by LC/MS. The protein-free control was prepared by using the binding buffer substitute for NS5B during incubation and it underwent the same process as the NS5B incubated sample. In the secondary screen, 384 fragments were divided into 7 cocktails, each consisting of 50 fragments except for the seventh cocktail of 84 fragments. Each cocktail was then incubated with NS5B in the binding buffer at the same final concentration as in the primary screen. […] Ultrafiltration and complex dissociation were performed as described earlier to obtain fragment ligands. Samples were all prepared in duplicate and analyzed separately.
Aliquots of reconstituted ultrafiltrates were analyzed on a Waters Synapt G1 high-dfinition mass spectrometer (Milford, MA) equipped with a Waters Acquity UPLC system. UPLC separation was carried out on a Waters Acquity BEH C18 column (2.1 mm × 50 mm, 1.7 μm) at a flow rate of 200 μL/min, with the mobile phases of water/0.1% formic acid (A) and acetonitrile/0.1% formic acid (B). […]

HCV RNA polymerase NS5B [2] = molecular target: T1, HCV RNA polymerase NS5B; test: biochemical; assay type: binding; conditions: for Binding degree (fraction of fragment ligands over total fragment in incubation) / S/N in the validation assay: 12-hit mixture; for Binding degree (fraction of fragment ligands over total fragment in incubation): P/L 2:1, 1:1, 1:2, theoretical value for about 1 mM affinity; for S/N in the validation assay: two replicates separated by a slash, S/N > 10 positive, ND: not detected by MS analysis; for MS S/N: Figure 2B, S/N factors from two independent experiments, legend says validation assay; for LE (ligand efficiency): derived from Kd at P/L 1:1 and heavy atom count
Procedure: Binding degree of each fragment represented by the fraction of fragment ligands over the total amount of fragments during incubation reflects the relative order of binding strengths.
In order to determine the dissociation constant of each fragment ligand, we prepared calibration curves for the MS responses of ten fragments in a mixture (Figure S1) and measured the recovery rate of each fragment (Table S3), which were used to derive the actual concentrations of fragments bound to the target. Kd values were then calculated based on the measured concentrations of fragment ligands dissociated from the target (Table S3). […] Ligand efficiency (LE) values were then derived from Kd's as a measure to justify which fragments to further optimize and elaborate in the FBLD pipeline[46][47] (Figure 2A). […] SPR was then implemented for Kd determination for these fragment hits.
as §1, with “All” for “In the primary screening, a mixture of 384 fragments (each at a final concentration of 25 μM) and NS5B at 50 μM was prepared in the binding buffer of 20 mM MES (pH 6.5), 300 mM NaCl and 10% glycerol, and incubated for 40 min at 25°C. All”, “In the secondary screen, 384 fragments were divided into 7 cocktails, each consisting of 50 fragments except for the seventh cocktail of 84 fragments.” left out

[3] = P/L = 1:1, protein 25 μM, estimated from MS-measured bound ligand concentration, read-out: Kd
[4] = P/L = 1:2, protein 25 μM, read-out: Kd
[5] = P/L = 2:1, protein 25 μM, read-out: Kd
[6] = Kd, P/L = 1:1, protein 25 μM, estimated from MS-measured bound ligand concentration

For Cn1c(=O)cc(O)c2ccccc21 [Fragment 130], the “S/N in the 1st screen” value (HCV RNA polymerase NS5B [1]) was 93.1 and 102.3, the Binding (HCV RNA polymerase NS5B [1]; Figure 1A workflow example) was “+ (Positive fragment binding is indicated by its S/N ratio > 10)” and the S/N (HCV RNA polymerase NS5B [1]; Figure 1A workflow example) was 93. The “Binding degree (fraction of fragment ligands over total fragment in incubation)” value (HCV RNA polymerase NS5B [2]) was roughly 2.4%, the “S/N in the validation assay” value (HCV RNA polymerase NS5B [2]) was 378.0 and 376.0 and the “MS S/N” value (HCV RNA polymerase NS5B [2]) was 48 and 49. For the same compound, the Kd (HCV RNA polymerase NS5B [2]; [3]) was 1.19 ± 0.08 mM, the Kd (HCV RNA polymerase NS5B [2]; [4]) was 1.37 ± 0.04 mM and the Kd (HCV RNA polymerase NS5B [2]; [5]) was 0.95 ± 0.08 mM. For the same compound, the “LE (ligand efficiency)” value (HCV RNA polymerase NS5B [2]) was 0.30.
For O=C(O)c1ccc(C(F)(F)F)cc1 [Fragment 204], the “S/N in the 1st screen” value (HCV RNA polymerase NS5B [1]) was 13.4 and 11.6, the “S/N in the validation assay” value (HCV RNA polymerase NS5B [2]) was 21.0 and 23.0 and the “MS S/N” value (HCV RNA polymerase NS5B [2]) was 22 and 20. For the same compound, the Kd (HCV RNA polymerase NS5B [2]; [3]) was 4.04 ± 0.34 mM, the Kd (HCV RNA polymerase NS5B [2]; [4]) was 5.27 mM and the Kd (HCV RNA polymerase NS5B [2]; [5]) was 3.78 ± 0.35 mM. For the same compound, the “LE (ligand efficiency)” value (HCV RNA polymerase NS5B [2]) was 0.25.
Cc1cc(N)n(-c2ccccc2)n1 [Fragment 131] was tested, and the “S/N in the 1st screen” value (HCV RNA polymerase NS5B [1]) was 45.7 and 39.3, the “S/N in the validation assay” value (HCV RNA polymerase NS5B [2]) was 56.0 and 46.0 and the “MS S/N” value (HCV RNA polymerase NS5B [2]) was 23 and 19. The Kd (HCV RNA polymerase NS5B [2]; [3]) was 13.4 ± 1.98 mM, the Kd (HCV RNA polymerase NS5B [2]; [4]) was 7.29 ± 0.19 mM and the Kd (HCV RNA polymerase NS5B [2]; [5]) was 12.7 ± 2.03 mM. The “LE (ligand efficiency)” value (HCV RNA polymerase NS5B [2]) was 0.20.
Nc1ccc(C(F)(F)F)cn1 [Fragment 162] was tested, and the “S/N in the 1st screen” value (HCV RNA polymerase NS5B [1]) was 2714 and 3280, the Binding (HCV RNA polymerase NS5B [1]; Figure 1A workflow example) was “+ (Positive fragment binding is indicated by its S/N ratio > 10)” and the “S/N in the validation assay” value (HCV RNA polymerase NS5B [2]) was 466.0 and 513.0. For the same compound, the “MS S/N” value (HCV RNA polymerase NS5B [2]) was 20 and 17, the Kd (HCV RNA polymerase NS5B [2]; [3]) was 8.96 ± 2.49 mM and the Kd (HCV RNA polymerase NS5B [2]; [4]) was 9.53 ± 0.26 mM. For the same compound, the Kd (HCV RNA polymerase NS5B [2]; [5]) was 10.2 ± 1.3 mM and the “LE (ligand efficiency)” value (HCV RNA polymerase NS5B [2]) was 0.25.
Oc1ccc(F)c(Cl)c1 [Fragment 85] was tested, and the “S/N in the 1st screen” value (HCV RNA polymerase NS5B [1]) was 27.9 and 29.7, the “S/N in the validation assay” value (HCV RNA polymerase NS5B [2]) was 60.0 and 53.0 and the “MS S/N” value (HCV RNA polymerase NS5B [2]) was 79 and 86. It also gave a Kd (HCV RNA polymerase NS5B [2]; [3]) of 5.67 ± 0.34 mM, a Kd (HCV RNA polymerase NS5B [2]; [4]) of 6.8 ± 0.99 mM and a Kd (HCV RNA polymerase NS5B [2]; [5]) of 6.2 ± 0.51 mM. The “LE (ligand efficiency)” value (HCV RNA polymerase NS5B [2]) was 0.33.
For N#CC(c1ccccc1)N1CCOCC1 (stereo not drawn) [Fragment 328], the “S/N in the 1st screen” value (HCV RNA polymerase NS5B [1]) was 124.6 and 138.4, the “S/N in the validation assay” value (HCV RNA polymerase NS5B [2]) was 170.0 and 155.0 and the “MS S/N” value (HCV RNA polymerase NS5B [2]) was 17 and 16. For the same compound, the Kd (HCV RNA polymerase NS5B [2]; [6]) was 20 mM, the Kd (HCV RNA polymerase NS5B [2]; Kd, P/L = 1:2, protein 25 μM) was 26.4 ± 7.92 mM and the Kd (HCV RNA polymerase NS5B [2]; Kd, P/L = 2:1, protein 25 μM) was 23.5 ± 2.65 mM. The “LE (ligand efficiency)” value (HCV RNA polymerase NS5B [2]) was 0.14.
In the case of N#CCc1ccc(O)cc1 [Fragment 114], the “S/N in the 1st screen” value (HCV RNA polymerase NS5B [1]) is reported as 17.9 and 20.9, the “Binding degree (fraction of fragment ligands over total fragment in incubation)” value (HCV RNA polymerase NS5B [2]) is reported as roughly 2.4% and the “S/N in the validation assay” value (HCV RNA polymerase NS5B [2]) is reported as 983.0 and 1198.0. The “MS S/N” value (HCV RNA polymerase NS5B [2]) was 103 and 91, the Kd (HCV RNA polymerase NS5B [2]; [6]) was 1.01 ± 0.06 mM and the Kd (HCV RNA polymerase NS5B [2]; Kd, P/L = 1:2, protein 25 μM) was 1.2 mM. The Kd (HCV RNA polymerase NS5B [2]; Kd, P/L = 2:1, protein 25 μM) was 1.13 ± 0.25 mM and the “LE (ligand efficiency)” value (HCV RNA polymerase NS5B [2]) was 0.40.
With Cc1ccc2oc(=O)ccc2c1 [Fragment 117] the “S/N in the 1st screen” value (HCV RNA polymerase NS5B [1]) was 55.6 and 46.8, the “S/N in the validation assay” value (HCV RNA polymerase NS5B [2]) was 111.0 and 122.0 and the “MS S/N” value (HCV RNA polymerase NS5B [2]) was 34 and 40. It also gave a Kd (HCV RNA polymerase NS5B [2]; [3]) of 9.31 ± 0.23 mM, a Kd (HCV RNA polymerase NS5B [2]; [4]) of 9.18 ± 2.75 mM and a Kd (HCV RNA polymerase NS5B [2]; [5]) of 8.96 ± 0.84 mM. For the same compound, the “LE (ligand efficiency)” value (HCV RNA polymerase NS5B [2]) was 0.22.
For Oc1ccc(SC(F)(F)F)cc1 [Fragment 237], the “S/N in the 1st screen” value (HCV RNA polymerase NS5B [1]) was 1027 and 1179, the “S/N in the validation assay” value (HCV RNA polymerase NS5B [2]) was 212.0 and 196.0 and the “MS S/N” value (HCV RNA polymerase NS5B [2]) was 29 and 36. For the same compound, the Kd (HCV RNA polymerase NS5B [2]; [3]) was 5.64 ± 0.06 mM, the Kd (HCV RNA polymerase NS5B [2]; [4]) was 6.45 ± 1.67 mM and the Kd (HCV RNA polymerase NS5B [2]; [5]) was 5.19 ± 0.46 mM. The “LE (ligand efficiency)” value (HCV RNA polymerase NS5B [2]) was 0.25.
For Cc1nc2ccccc2nc1C [Fragment 339], the “S/N in the 1st screen” value (HCV RNA polymerase NS5B [1]) was 241.4 and 259.8, the “S/N in the validation assay” value (HCV RNA polymerase NS5B [2]) was 172.0 and 223.0 and the “MS S/N” value (HCV RNA polymerase NS5B [2]) was 66 and 62. It also gave a Kd (HCV RNA polymerase NS5B [2]; [6]) of 10.2 ± 0.45 mM, a Kd (HCV RNA polymerase NS5B [2]; Kd, P/L = 1:2, protein 25 μM) of 8.95 ± 2.03 mM and a Kd (HCV RNA polymerase NS5B [2]; Kd, P/L = 2:1, protein 25 μM) of 11.2 ± 1.45 mM. The “LE (ligand efficiency)” value (HCV RNA polymerase NS5B [2]) was 0.22.
